Test results published in US20080292673A1, “Bioactive agrichemical compositions and use therreof” (priority 2007, published 2008).
Where two headings read alike, the source gives them in different places.

What was measured:
[1] = system: Saccharomycetes Cerevisiae (Fleishmann's Bakers yeast); test: Saccharomycetes Cerevisiae yeast growth suppression, turbidity of broth suspension; type: cell-based; conditions: for T18 − T0 (change in turbidity) / T48 − T0 (change in turbidity) / T72 − T0 (change in turbidity) / T96 − T0 (change in turbidity) / T18 (turbidity of yeast suspension) / T48 (turbidity of yeast suspension) / T72 (turbidity of yeast suspension) / T96 (turbidity of yeast suspension) / T0 (turbidity of yeast suspension): surfactant ~0.05 wt %; for T0 (turbidity of yeast suspension): time 0; for Turbidity (NTU) OD (To) / Turbidity (NTU) OD (T1 hr) / Turbidity (NTU) OD (T18) / Turbidity (NTU) OD (T24) / Turbidity (NTU) OD (T48): Table 3; for Turbidity (NTU) OD (To): 1 ml solutions added; for Turbidity (NTU) OD (T1 hr): 1 hour; for Turbidity (NTU) OD (T48): 48 hours; for Change in Turbidity from T0 (delta NTU) OD (T1 hr) / Change in Turbidity from T0 (delta NTU) OD (T18) / Change in Turbidity from T0 (delta NTU) OD (T24) / Change in Turbidity from T0 (delta NTU) OD (T48): Table 3A; for Change in Turbidity from T0 (delta NTU) OD (T48): 48 hours minus time zero
Method: Saccharomycetes Cerevisiae was selected as a test organism as it is generally accepted in the industry as an indicator or surrogate organism for a wide variety of fungi. In each of these experiments, the same general procedure was followed unless otherwise indicated.
Experimental Detail: A growth medium was prepared by adding 10 grams of nutrient medium (Difco Sabouraud dextrose broth from BD of Franklin Lakes, N.J., USA) to 300 ml of distilled water. Fleishmann's Bakers yeast was then added to the growth medium while mixing using a magnetic stirrer until a uniform dispersion was obtained having an initial turbidity of between about 50 and 100 NTU as measured using a HF Instruments DRT 100B Turbidity Meter. Once the appropriate dispersion was obtained, 20 ml aliquots were then dispensed, with continued mixing, into 40 ml borosilicate glass vials with Teflon lined caps (VWR International Cat. No. 15900-004). The system/component to be evaluated was then added to the vial and intimately shaken to ensure a good, substantially homogeneous mixture. The turbidity of each mixture was then determined and the vial transferred to an incubator at 30° C. Each vial was periodically removed from the incubator and the mixture in the vials assessed for turbidity: the specific timing for such evaluation was as set forth in the discussion of the experiments and the accompanying tables.
In each experiment, unless otherwise specified, a 2 ml aqueous solution containing the specified bioactive system or component thereof was added to the 20 ml yeast suspension and mixed thoroughly. Typically the surfactants were added separately in a concentrated solution in water; however, the volume added was negligible: a fraction of an ml. For convenience in understanding efficacy levels, the amounts or concentrations of the various components presented in each of the following tables and experiments are of the diluted material in the test vial: not of the concentrate added to the test vial. Furthermore, the concentrations presented are on the basis of a 20 ml total volume, not the actual 22+ ml volume. Multiplying each of the listed concentrations by 0.9 (or 0.95 with those compositions using 1 ml aqueous solutions) will provide a more accurate assessment of the concentrations of the various components evaluated, i.e., a 5 ppm silver concentration is actually closer to 4.5 ppm. Finally, for those vials to which no bioactive system or component thereof was added (the controls) or which only contained the surfactants, 2 ml of additional growth medium was added to ensure relative equivalent dilutions of the yeast.
In the tables below, the results are presented as the actual turbidity readings (NTU) with a sub-table presenting the change or delta in NTU values. Given the nature of the system, changes in turbidity are reflective of the relative performance/bioefficacy of the bioactive systems and their components.

E. amylovora 153N = test: Fire blight on crabapples (Example 287); type: in vivo, Snow Drift crabapple trees
Method: A study of the bioefficacy of the various agrichemical compositions, including bioactive acid solutions and blends thereof with an antibiotic agrichemical, were evaluated to assess their bioefficacy against fire blight on crabapples. The study was conducted on 5 year old Snow Drift crabapple trees, with each of the compositions being applied to ten trees in two-subplots of five trees, four different times: at 100% bloom-day 1, a second application was made on day 4, a third on day 11 and a final treatment on day 19. The trees were inoculated with E. amylovora […] at a concentration of 4×10^6 cells per milliliter on day 1, following drying of the treatment, with the inoculation being repeated on day 13. Evaluation for fire blight was completed on 100 blossoms for each of the subplots on day 12, day 19 and day 27. Additionally, the incidence of shoot infection and the length of […] evaluated on day 63. The test compositions were prepared by forming solutions of the bioactive agents. Two different dilutions of the MI2 bioactive were evaluated; the first employing 94.46 ml/gallon (25 ml/l) of water (5 ppm of each metal) and the second 188.9 ml/gallon (50 ml/l) of water (10 ppm of each metal). […] Finally, copper hydroxide was diluted at a rate of 1 lb/gallon (119.8 g/l). Each of the compositions and blends were spray applied at a rate of 50 gallons (189.3 l) pre acre. The results are presented as the mean of the counts.

[2] = Metal ppm 2.5, about 0.2% citric acid
[3] = Metal ppm 2.5 each of copper, silver, zinc, about 0.2% citric acid
[4] = Metal ppm 5, approximately 0.4% citric acid
[5] = Metal ppm 5 each of copper, silver, zinc, approximately 0.4% citric acid
[6] = 1 hour minus time zero, sulfate
[7] = 18 hours minus time zero, sulfate
[8] = 24 hours minus time zero, sulfate

CCCCCCCCCCCCOS(=O)(=O)[O-].[Na+]
T18 − T0 (change in turbidity) ([1]; neat, Metal ppm 0): 447 | T48 − T0 (change in turbidity) ([1]; neat, Metal ppm 0): 610 | T72 − T0 (change in turbidity) ([1]; neat, Metal ppm 0): 594 | T96 − T0 (change in turbidity) ([1]; neat, Metal ppm 0): 591 | T18 (turbidity of yeast suspension) ([1]; neat, Metal ppm 0): 495 | T48 (turbidity of yeast suspension) ([1]; neat, Metal ppm 0): 658 | T72 (turbidity of yeast suspension) ([1]; neat, Metal ppm 0): 642 | T96 (turbidity of yeast suspension) ([1]; neat, Metal ppm 0): 639 | T0 (turbidity of yeast suspension) ([1]; neat, Metal ppm 0): 48 | T18 − T0 (change in turbidity) [1, 2]: 2 | T48 − T0 (change in turbidity) [1, 2]: 0 | T72 − T0 (change in turbidity) [1, 2]: 0 | T96 − T0 (change in turbidity) [1, 2]: −1 | T18 (turbidity of yeast suspension) [1, 3]: 90 | T48 (turbidity of yeast suspension) [1, 3]: 88 | T72 (turbidity of yeast suspension) [1, 3]: 88 | T96 (turbidity of yeast suspension) [1, 3]: 87 | T0 (turbidity of yeast suspension) [1, 3]: 88 | T18 − T0 (change in turbidity) [1, 4]: 13 | T48 − T0 (change in turbidity) [1, 4]: 2 | T72 − T0 (change in turbidity) [1, 4]: 7 | T96 − T0 (change in turbidity) [1, 4]: 1 | T18 (turbidity of yeast suspension) [1, 5]: 244 | T48 (turbidity of yeast suspension) [1, 5]: 233 | T72 (turbidity of yeast suspension) [1, 5]: 238 | T96 (turbidity of yeast suspension) [1, 5]: 232 | T0 (turbidity of yeast suspension) [1, 5]: 231

O=C([O-])CC(O)(CC(=O)[O-])C(=O)[O-].[Ag+].[Ag+].[Ag+] [Example 1, silver citrate]
Turbidity (NTU) Time 1 Hr ([1]; Table 1, 1 hour at 30° C.): 59.6 NTU | Turbidity (NTU) T 18 hours ([1]; Table 1, 18 hours): 890 NTU | Turbidity (NTU) T 24 hours ([1]; Table 1, 24 hours): 932 NTU | Turbidity (NTU) T 96 Hours ([1]; Table 1, 96 hours): 995 NTU | Turbidity (NTU) Time zero ([1]; Table 1, time zero): 44.5 NTU | Change in Turbidity from T0 (delta NTU) Time 1 Hr ([1]; Table 1A, 1 hour minus time zero): 15.1 delta NTU | Change in Turbidity from T0 (delta NTU) T 18 hours ([1]; Table 1A, 18 hours minus time zero): 845.5 delta NTU | Change in Turbidity from T0 (delta NTU) T 24 hours ([1]; Table 1A, 24 hours minus time zero): 887.5 delta NTU | Change in Turbidity from T0 (delta NTU) T 96 Hours ([1]; Table 1A, 96 hours minus time zero): 950.5 delta NTU

O=C([O-])CC(O)(CC(=O)[O-])C(=O)[O-].O=C([O-])CC(O)(CC(=O)[O-])C(=O)[O-].[Zn+2].[Zn+2].[Zn+2] [Example 7, zinc citrate]
Change in Turbidity from T0 (delta NTU) T 96 Hours [1]: 1007.2 delta NTU | Change in Turbidity from T0 (delta NTU) T 18 hours [1]: 948.2 delta NTU | Change in Turbidity from T0 (delta NTU) T 24 hours [1]: 949.2 delta NTU | Change in Turbidity from T0 (delta NTU) Time 1 Hr [1]: 20.7 delta NTU | Turbidity (NTU) T 96 Hours [1]: 1051 NTU | Turbidity (NTU) T 18 hours [1]: 992 NTU | Turbidity (NTU) T 24 hours [1]: 993 NTU | Turbidity (NTU) Time 1 Hr [1]: 64.5 NTU | Turbidity (NTU) Time zero [1]: 43.8 NTU

CCCCCCCCCCCCOS(=O)(=O)[O-].[Na+] [Example 45]
Turbidity (NTU) OD (To) ([1]; time zero, sulfate): 43 NTU | Turbidity (NTU) OD (T1 hr) ([1]; sulfate): 47 NTU | Turbidity (NTU) OD (T18) ([1]; 18 hours, sulfate): 675 NTU | Turbidity (NTU) OD (T24) ([1]; 24 hours, sulfate): 728 NTU | Turbidity (NTU) OD (T48) ([1]; sulfate): 758 NTU | Change in Turbidity from T0 (delta NTU) OD (T1 hr) [1, 6]: 4 delta NTU | Change in Turbidity from T0 (delta NTU) OD (T18) [1, 7]: 632 delta NTU | Change in Turbidity from T0 (delta NTU) OD (T24) [1, 8]: 685 delta NTU | Change in Turbidity from T0 (delta NTU) OD (T48) ([1]; sulfate): 715 delta NTU

CCCCCCCCCCCCOS(=O)(=O)[O-].[Na+] [Example 46]
Turbidity (NTU) OD (To) ([1]; time zero, sulfate): 37 NTU | Turbidity (NTU) OD (T1 hr) ([1]; sulfate): 42 NTU | Turbidity (NTU) OD (T18) ([1]; 18 hours, sulfate): 495 NTU | Turbidity (NTU) OD (T24) ([1]; 24 hours, sulfate): 610 NTU | Turbidity (NTU) OD (T48) ([1]; sulfate): 605 NTU | Change in Turbidity from T0 (delta NTU) OD (T1 hr) [1, 6]: 5 delta NTU | Change in Turbidity from T0 (delta NTU) OD (T18) [1, 7]: 458 delta NTU | Change in Turbidity from T0 (delta NTU) OD (T24) [1, 8]: 573 delta NTU | Change in Turbidity from T0 (delta NTU) OD (T48) ([1]; sulfate): 568 delta NTU

O=C(O)CC(O)(CC(=O)O)C(=O)O [Example 49, citric acid]
Turbidity (NTU) OD (To) ([1]; time zero): 42 NTU | Turbidity (NTU) OD (T1 hr) [1]: 46 NTU | Turbidity (NTU) OD (T18) ([1]; 18 hours): 835 NTU | Turbidity (NTU) OD (T24) ([1]; 24 hours): 920 NTU | Turbidity (NTU) OD (T48) [1]: 878 NTU | Change in Turbidity from T0 (delta NTU) OD (T1 hr) ([1]; 1 hour minus time zero): 4 delta NTU | Change in Turbidity from T0 (delta NTU) OD (T18) ([1]; 18 hours minus time zero): 793 delta NTU | Change in Turbidity from T0 (delta NTU) OD (T24) ([1]; 24 hours minus time zero): 878 delta NTU | Change in Turbidity from T0 (delta NTU) OD (T48) [1]: 836 delta NTU

O=C(O)CC(O)(CC(=O)O)C(=O)O [Example 50, citric acid]
Turbidity (NTU) OD (To) ([1]; time zero): 38 NTU | Turbidity (NTU) OD (T1 hr) [1]: 44 NTU | Turbidity (NTU) OD (T18) ([1]; 18 hours): 780 NTU | Turbidity (NTU) OD (T24) ([1]; 24 hours): 864 NTU | Turbidity (NTU) OD (T48) [1]: 852 NTU | Change in Turbidity from T0 (delta NTU) OD (T1 hr) ([1]; 1 hour minus time zero): 6 delta NTU | Change in Turbidity from T0 (delta NTU) OD (T18) ([1]; 18 hours minus time zero): 742 delta NTU | Change in Turbidity from T0 (delta NTU) OD (T24) ([1]; 24 hours minus time zero): 826 delta NTU | Change in Turbidity from T0 (delta NTU) OD (T48) [1]: 814 delta NTU

[Cu+2].[OH-].[OH-] [copper hydroxide]
shoot blight incidence, in words (E. amylovora 153N; evaluated on day 63): greatly reduced | canker, in words (E. amylovora 153N; length of cankers evaluated on day 63): appeared to prevent canker

copper citrate [Example 13]
Change in Turbidity from T0 (delta NTU) T 96 Hours [1]: 1054.4 delta NTU | Change in Turbidity from T0 (delta NTU) T 18 hours [1]: 894.4 delta NTU | Change in Turbidity from T0 (delta NTU) T 24 hours [1]: 975.4 delta NTU | Change in Turbidity from T0 (delta NTU) Time 1 Hr [1]: 22.4 delta NTU | Turbidity (NTU) T 96 Hours [1]: 1100 NTU | Turbidity (NTU) T 18 hours [1]: 940 NTU | Turbidity (NTU) T 24 hours [1]: 1021 NTU | Turbidity (NTU) Time 1 Hr [1]: 68 NTU | Turbidity (NTU) Time zero [1]: 45.6 NTU
